Assay [1] concerns cellular H3K36me2 level in multiple myeloma cell line KMS11 (t(4;14)+). Put plainly: H3K36me2 cellular ELISA assay in KMS11-Par line. In kind it is cell-based. Particulars: Homo sapiens, KMS-11, ELISA, read-out: H3K36me2 ELISA in KMS11-Par. Summed up:
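KMS11 cells were seeded a day ahead at 1,250 per well in Opti-MEM with B-27/N2, then treated with compound for 72 h. Histones were acid-extracted with 0.4M HCl, and H3K36me2 and total H3 were read by chemiluminescent ELISA. Viability was checked with CellTiter-Glo on a parallel plate in maintenance media.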
(In general: An ELISA detects its analyte on a solid surface through an enzyme-linked reagent.)

The target of another assay is NSD2 [1-1365] (Homo sapiens (Human), UniProt O96028). Description: LC-MS/MS-based NSD2 enzymatic assay (SAH production). Type of assay: biochemical. Particulars: read-out: NSD2 IC50. Summed up:
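Full-length NSD2 [1-1365] (8 nM final) with 1 μM SAM and 400 nM mouse-liver nucleosome in Tris pH 8.0 buffer; inhibitor preincubated 20 min with enzyme/SAM before nucleosome addition. Reaction 90 min at room temperature, TFA-quenched; SAH quantified by LC-MS/MS against d4-SAH internal standard and SAH standard curve.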

In assay [2] the test system is cellular H3K36me2 level in thyroid carcinoma cell line CGTH-W-1 (NSD2 E1099K). Put plainly: H3K36me2 cellular ELISA assay in CGTH-W-1 line. In kind it is cell-based. Particulars: Homo sapiens, CGTH-W-1, 72 h, read-out: H3K36me2 ELISA in CGTH-W-1. Summed up: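 CGTH-W-1 thyroid carcinoma cells (NSD2 E1099K gain-of-function) exposed to compound for 72 hours. Histone-bound plates probed for H3K36me2 and total H3 by chemiluminescent ELISA. Viability checked on a parallel plate with CellTiter-Glo.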

Where [3] appears, read: KMS11-Par line (t(4;14)+), 72 hours treatment.
Where [4] appears, read: NSD2 biochemical activity, class symbols.

Molecules are shown by their SMILES. Where two headings read alike, the source gives them in different places.

NSD2 [1-1365], sequence (O96028 whole entry): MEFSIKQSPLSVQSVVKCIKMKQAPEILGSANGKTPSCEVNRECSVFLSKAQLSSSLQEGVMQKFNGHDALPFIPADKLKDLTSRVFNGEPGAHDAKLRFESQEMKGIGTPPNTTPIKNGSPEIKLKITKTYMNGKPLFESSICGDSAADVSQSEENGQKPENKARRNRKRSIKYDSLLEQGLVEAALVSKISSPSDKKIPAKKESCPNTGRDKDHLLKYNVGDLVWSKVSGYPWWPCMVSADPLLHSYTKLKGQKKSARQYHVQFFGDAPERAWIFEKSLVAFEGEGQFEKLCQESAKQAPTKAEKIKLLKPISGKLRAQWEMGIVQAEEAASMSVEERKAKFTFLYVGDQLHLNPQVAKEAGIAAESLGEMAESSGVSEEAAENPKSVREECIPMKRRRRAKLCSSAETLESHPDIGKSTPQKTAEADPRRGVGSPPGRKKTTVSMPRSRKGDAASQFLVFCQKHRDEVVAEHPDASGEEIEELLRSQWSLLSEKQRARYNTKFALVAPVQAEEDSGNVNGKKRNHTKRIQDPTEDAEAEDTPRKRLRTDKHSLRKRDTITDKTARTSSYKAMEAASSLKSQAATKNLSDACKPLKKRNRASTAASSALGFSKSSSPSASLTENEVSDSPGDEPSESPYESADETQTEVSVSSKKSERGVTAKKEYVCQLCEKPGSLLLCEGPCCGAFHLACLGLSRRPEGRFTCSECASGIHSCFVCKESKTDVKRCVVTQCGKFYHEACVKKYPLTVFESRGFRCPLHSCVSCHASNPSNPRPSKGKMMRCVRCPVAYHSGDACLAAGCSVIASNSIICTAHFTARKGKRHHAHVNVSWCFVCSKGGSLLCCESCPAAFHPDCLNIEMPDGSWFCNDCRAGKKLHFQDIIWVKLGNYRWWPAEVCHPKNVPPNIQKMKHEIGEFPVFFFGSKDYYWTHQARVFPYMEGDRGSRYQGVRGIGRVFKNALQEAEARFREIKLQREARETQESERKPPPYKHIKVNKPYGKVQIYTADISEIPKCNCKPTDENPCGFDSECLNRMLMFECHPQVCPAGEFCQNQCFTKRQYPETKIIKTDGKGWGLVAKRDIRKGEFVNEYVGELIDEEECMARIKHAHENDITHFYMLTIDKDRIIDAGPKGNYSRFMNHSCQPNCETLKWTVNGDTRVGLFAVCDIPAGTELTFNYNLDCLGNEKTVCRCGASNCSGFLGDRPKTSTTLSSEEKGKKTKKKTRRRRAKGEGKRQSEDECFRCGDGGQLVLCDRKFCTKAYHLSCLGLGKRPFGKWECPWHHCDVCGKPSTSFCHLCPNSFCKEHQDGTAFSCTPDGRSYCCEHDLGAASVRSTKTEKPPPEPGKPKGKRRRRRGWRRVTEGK

Regarding `Nc1ncnc2c1ncn2Cc1cc(-c2ccc(F)c(F)c2)ncc1N1CCC[C@](N)(c2ccc[nH]c2=O)C1` [Example 272, (S)-3-(3-amino-1-(4-((6-amino-9H-purin-9-yl)methyl)-6-(3,4-difluorophenyl)pyridin-3-yl)piperidin-3-yl)pyridin-2(1H)-one], the IC50 in assay [1] (KMS11-Par line, 72 hours) is 10500 nM; on NSD2 [1-1365], 1 to 10 nM; in assay [2] it was 1750 nM.

With `Nc1ncnc2c1ncn2Cc1cc(-c2ccc(F)cc2C(F)F)ncc1N1CCC[C@](N)([C@@H](O)C(F)F)C1` [Example 158, (R)-1-((R)-3-amino-1-(4-((6-amino-9H-purin-9-yl)methyl)-6-(2-(difluoromethyl)-4-fluorophenyl)pyridin-3-yl)piperidin-3-yl)-2,2-difluoroethan-1-ol], the results for the IC50 (in assay [1] (setting [3]); on NSD2 [1-1365] (setting [4]); in assay [2]) were 802 nM, 1 to 10 nM and 100 nM, respectively.

With `C#C[C@@]1(N)CCCN(c2cnc(-c3ccc(F)c(F)c3)cc2Cn2cnc3c(N)ncnc32)C1` [Example 304, (S)-9-((5-(3-amino-3-ethynylpiperidin-1-yl)-2-(3,4-difluorophenyl)pyridin-4-yl)methyl)-9H-purin-6-amine], the IC50 is 592 nM in assay [1] (KMS11-Par line, 72 hours); 10 to 1000 nM on NSD2 [1-1365]; 101 nM in assay [2].

As for `Nc1ncnc2c1ncn2Cc1cc(-c2ccc(F)cc2F)ncc1N1CCC[C@](N)(c2cccc(Cl)n2)C1` [Example 238, (R)-9-((5-(3-amino-3-(6-chloropyridin-2-yl)piperidin-1-yl)-2-(2,4-difluorophenyl)pyridin-4-yl)methyl)-9H-purin-6-amine], the IC50 in assay [1] (KMS11-Par line, 72 hours) is 1340 nM; at NSD2 [1-1365], 1 to 10 nM; in assay [2] it was 588 nM.

As to `Nc1ncnc2c1ncn2Cc1cc(-c2ccc(F)c(F)c2)ncc1N1CCC[C@](N)([C@H](O)C(F)F)C1` [Example 114, (S)-1-((R)-3-amino-1-(4-((6-amino-9H-purin-9-yl)methyl)-6-(3,4-difluorophenyl)pyridin-3-yl)piperidin-3-yl)-2,2-difluoroethan-1-ol], the IC50 was 1940 nM in assay [1] (setting [3]), 10 to 1000 nM at NSD2 [1-1365] (setting [4]) and 443 nM in assay [2].

`COc1ccc(-c2cc(Cn3cnc4c(N)ncnc43)c(N3CCC[C@](N)(c4cccc(Cl)n4)C3)cn2)nc1Cl` [Example 194, (R)-9-((5-(3-amino-3-(6-chloropyridin-2-yl)piperidin-1-yl)-6′-chloro-5′-methoxy-[2,2′-bipyridin]-4-yl)methyl)-9H-purin-6-amine]: the IC50 in assay [1] (KMS11-Par line, 72 hours) was 3280 nM; on NSD2 [1-1365], 10 to 1000 nM; in assay [2] it was 805 nM.

For the compound `CC(C)(C)C(=O)[C@@]1(N)CCCN(c2cnc(-c3ccc(F)c(F)c3)cc2Cn2cnc3c(N)ncnc32)C1` [Example 109, (R)-1-(3-amino-1-(4-((6-amino-9H-purin-9-yl)methyl)-6-(3,4-difluorophenyl)pyridin-3-yl)piperidin-3-yl)-2,2-dimethylpropan-1-one], the IC50 in assay [1] (setting [3]) is 2730 nM; at NSD2 [1-1365] (setting [4]), 10 to 1000 nM; in assay [2] it was 2090 nM.

For the compound `CC(C)C(C)C(=O)C1(N)CCCN(c2cnc(-c3ccc(F)c(F)c3)cc2Cn2cnc3c(N)ncnc32)C1` (stereo not drawn) [Example 89, 1-(3-amino-1-(4-((6-amino-9H-purin-9-yl)methyl)-6-(3,4-difluorophenyl)pyridin-3-yl)piperidin-3-yl)-2,3-dimethylbutan-1-one], the results for the IC50 (in assay [1] (setting [3]); on NSD2 [1-1365] (setting [4]); in assay [2]) were 684 nM, 10 to 1000 nM and 245 nM, respectively.

For the compound `Cc1ccc(-c2cc(Cn3cnc4c(N)ncnc43)c(N3CCC[C@](N)([C@@H](O)C(F)F)C3)cn2)c(C)c1` [Example 126, (R)-1-((R)-3-amino-1-(4-((6-amino-9H-purin-9-yl)methyl)-6-(2,4-dimethylphenyl)pyridin-3-yl)piperidin-3-yl)-2,2-difluoroethan-1-ol], the results for the IC50 (in assay [1] (setting [3]); on NSD2 [1-1365] (setting [4]); in assay [2]) were 1110 nM, 1 to 10 nM and 469 nM, respectively.

Turning to `Nc1ncnc2c1ncn2Cc1cc(-c2ccc(F)c(F)c2)ncc1N1CCCC(N)(C(=O)C2CCOCC2)C1` (stereo not drawn) [Example 108, (3-amino-1-(4-((6-amino-9H-purin-9-yl)methyl)-6-(3,4-difluorophenyl)pyridin-3-yl)piperidin-3-yl)(tetrahydro-2H-pyran-4-yl)methanone], the IC50 in assay [1] (setting [3]) was 1960 nM; at NSD2 [1-1365] (setting [4]) it was 10 to 1000 nM; in assay [2], 772 nM.

`Nc1ncnc2c1ncn2Cc1cc(-c2ccc(F)cn2)ncc1N1CCC[C@](N)([C@@H](O)C(F)F)C1` [Example 155, (R)-1-((R)-3-amino-1-(4-((6-amino-9H-purin-9-yl)methyl)-5′-fluoro-[2,2′-bipyridin]-5-yl)piperidin-3-yl)-2,2-difluoroethan-1-ol]: the IC50 in assay [1] (setting [3]) is 16400 nM; at NSD2 [1-1365] (setting [4]), 10 to 1000 nM; in assay [2] it was 1170 nM.

Take `CC(O)c1ccc([C@@]2(N)CCCN(c3cnc(-c4ccc(F)c(F)c4)cc3Cn3cnc4c(N)ncnc43)C2)nc1Cl` (stereo partly drawn) [Example 234, 1-(6-((R)-3-amino-1-(4-((6-amino-9H-purin-9-yl)methyl)-6-(3,4-difluorophenyl)pyridin-3-yl)piperidin-3-yl)-2-chloropyridin-3-yl)ethan-1-ol]: the IC50 in assay [1] (KMS11-Par line, 72 hours) was 5990 nM; on NSD2 [1-1365], 10 to 1000 nM; in assay [2], 1620 nM.

For `Nc1ncnc2c1ncn2Cc1cc(-c2ccc(F)c(F)c2)ncc1N1CCCC(N)(C(=O)C2CCC2)C1` (stereo not drawn) [Example 105, (3-amino-1-(4-((6-amino-9H-purin-9-yl)methyl)-6-(3,4-difluorophenyl)pyridin-3-yl)piperidin-3-yl)(cyclobutyl)methanone], the IC50 in assay [1] (setting [3]) was 140 nM; at NSD2 [1-1365] (setting [4]) it was 10 to 1000 nM; in assay [2], 67 nM.

As for `COc1ncc(-c2cc(Cn3cnc4c(N)ncnc43)c(N3CCC[C@](N)(c4cccc(Cl)n4)C3)cn2)cc1F` [Example 231, (R)-9-((5-(3-amino-3-(6-chloropyridin-2-yl)piperidin-1-yl)-5′-fluoro-6′-methoxy-[2,3′-bipyridin]-4-yl)methyl)-9H-purin-6-amine], the IC50 was 7440 nM in assay [1] (KMS11-Par line, 72 hours); 10 to 1000 nM at NSD2 [1-1365]; 2150 nM in assay [2].

`Nc1ncnc2c1ncn2Cc1cc(-c2cc(F)cc(C(F)F)c2F)ncc1N1CCC[C@](N)([C@@H](O)C(F)F)C1` [Example 154, (R)-1-((R)-3-amino-1-(4-((6-amino-9H-purin-9-yl)methyl)-6-(3-(difluoromethyl)-2,5-difluorophenyl)pyridin-3-yl)piperidin-3-yl)-2,2-difluoroethan-1-ol]: the IC50 in assay [1] (setting [3]) is 9110 nM; at NSD2 [1-1365] (setting [4]) it was 10 to 1000 nM; in assay [2] it was 2930 nM.

As for `Nc1ncnc2c1ncn2Cc1cc(-c2ccc(F)cc2C(F)F)ncc1N1CCC[C@](N)([C@H](O)C(F)F)C1` [Example 159, (S)-1-((R)-3-amino-1-(4-((6-amino-9H-purin-9-yl)methyl)-6-(2-(difluoromethyl)-4-fluorophenyl)pyridin-3-yl)piperidin-3-yl)-2,2-difluoroethan-1-ol], the results for the IC50 (in assay [1] (setting [3]); at NSD2 [1-1365] (setting [4]); in assay [2]) were 1130 nM, 1 to 10 nM and 140 nM, respectively.

As to `COc1cc(F)c(-c2cc(Cn3cnc4c(N)ncnc43)c(N3CCC[C@](N)(c4cccc(Cl)n4)C3)cn2)cc1F` [Example 187, (R)-9-((5-(3-amino-3-(6-chloropyridin-2-yl)piperidin-1-yl)-2-(2,5-difluoro-4-methoxyphenyl)pyridin-4-yl)methyl)-9H-purin-6-amine], the IC50 in assay [1] (KMS11-Par line, 72 hours) is 815 nM; at NSD2 [1-1365] it was 10 to 1000 nM; in assay [2], 383 nM.

For the compound `Nc1ncnc2c1ncn2Cc1cc(-c2ccc(F)c(F)c2)ncc1N1CCC[C@](N)(c2cccc(F)n2)C1` [Example 201, (R)-9-((5-(3-amino-3-(6-fluoropyridin-2-yl)piperidin-1-yl)-2-(3,4-difluorophenyl)pyridin-4-yl)methyl)-9H-purin-6-amine], the IC50 was 286 nM in assay [1] (KMS11-Par line, 72 hours); 1 to 10 nM on NSD2 [1-1365]; 123 nM in assay [2].

As to `Nc1ncnc2c1ncn2Cc1cc(-c2ccc(F)cc2)ncc1N1CCCC(N)(c2ccc(F)c(CF)n2)C1` (stereo not drawn) [Example 193, 9-((5-(3-amino-3-(5-fluoro-6-(fluoromethyl)pyridin-2-yl)piperidin-1-yl)-2-(4-fluorophenyl)pyridin-4-yl)methyl)-9H-purin-6-amine], the IC50 in assay [1] (KMS11-Par line, 72 hours) was 1850 nM; on NSD2 [1-1365] it was 10 to 1000 nM; in assay [2], 876 nM.

Take `COc1ccc(-c2cc(Cn3cnc4c(N)ncnc43)c(N3CCC[C@](N)(c4cccc(Cl)n4)C3)cn2)c(F)c1F` [Example 242, (R)-9-((5-(3-amino-3-(6-chloropyridin-2-yl)piperidin-1-yl)-2-(2,3-difluoro-4-methoxyphenyl)pyridin-4-yl)methyl)-9H-purin-6-amine]: the IC50 in assay [1] (KMS11-Par line, 72 hours) was 8190 nM; at NSD2 [1-1365], 10 to 1000 nM; in assay [2], 2710 nM.

(Values after patent US11420970B1 (NOVARTIS AG, priority 2019, dated 2022).)
